Values joined by “and” are separate entries in the source; they are usually repeats but may differ in a detail not shown here. Equal values may be shown once.
Tests used:
Assay type in all cases: cell-based
[1] = test system: Botryococcus braunii (strain UTEX 572); test: Media component screening in heterotrophic culture; details: UTEX 572, 0.2% component + 3% glucose, 6-well plates, dark, room temperature, 16 days
Protocol: Media components incorporated in soil bacteria media were tested in heterotrophic culture of Botryococcus braunii (strain UTEX 572). For each component tested, 5 ml of B11 media (as described in Example 2 above) supplemented with 3% glucose (Fisher) were prepared in 6-well plates. Additionally, the media was supplemented with 0.2% of one of the following soil bacteria media components: dextrin (MP Biomedicals), malt extract (MP Biomedicals), traders yeast (Pharmamedia), corn meal, corn steep powder (Marcor), whole dead yeast (Engevita), casein type M (Marcor), casein type B (Marcor), tomato paste, molasses, soy hydrolysate (MP Biomedicals), soy flour (Arrowhead Mills), corn starch (Sigma), and maltose (Fisher). Wells were inoculated and cultures were grown at room temperature in the dark for 16 days. […] All media were filter sterilized.
The cells from each condition were transferred into 150 mL T150 flasks containing 50 mL B11 media with 3% glucose and 0.2% of their respective supplemental component. Cultures were grown in the dark for one week at 28° C. Cells were pelleted and fresh media (100 mL) were added to the cultures. The cultures were allowed to grow for another two weeks in the dark at 28° C. and then were collected and dry cell weights were measured. For most conditions, the addition of a 0.2% supplemental component increased cell growth as compared to glucose control. […]

[2] = test system: Botryococcus braunii (UTEX 572); test: High surface to volume heterotrophic cultivation; details: UTEX 572, 3% glucose, dark, stepwise scale-up
Protocol: In order to develop a reproducible, scalable process for the heterotrophic cultivation of B. braunii, a low-volume, slow-mixing heterotrophic procedure was developed. Botryococcus braunii (UTEX 572) cultures were transferred from solid media plates into 6-well plates using B-11 media supplemented with 3% glucose and was grown for one week at room temperature in the dark. The cultures were then transferred into 50 mL of fresh media in a 150 mL T-flask and agitated at 40 rpm on a plate shaker for one week at room temperature in the dark. The cultures were then transferred into 100 mL of fresh media in a 500 mL T-flask and agitated at 30 rpm with a two-inch throw for one week at room temperature in the dark. Finally, the cultures were transferred into 350 mL of fresh media in a Fernbach flask and agitated at 30 rpm with a two-inch throw for one week at room temperature in the dark. In one set of cultures, the cells were transferred into 500 mL of fresh media in a Fernbach flask (instead of 350 mL). Dry cell weights were collected for all cultures and compared. Cultures that were grown in a final volume of 350 mL of media reached a DCW of about 9 grams per liter.

[3] = test system: Botryococcus braunii UTEX 572; test: Heterotrophic growth with glucose, 24 well plate, dark or light; details: for DCW g/L / DCW mg/ml.: 4 weeks
Protocol: (§1) Modified BG-11 (17.65 mM NaNO3, 0.23 mM K2PO4, 0.3 mM MgSO4.7H2O, 0.25 mM CaCl2.2H2O, 0.189 mM Na2CO3, 0.03 mM citric acid monohydrate, 0.023 mM ferric ammonium citrate, 0.046 mM H3BO3, 9.15 μM MnCl2.4H2O, 0.77 μM ZnSO4.7H2O, 0.32 μM CuSO4.5H2O, 0.21 μM CoCl2.6H2O, 1.62 μM NaMoO4.2H2O, 2.69 μM Na2EDTA, 9 mg/l Tricine, 1.99 μM Thiamine-HCl, 0.006 μM Cyanocobalamine, 0.044 μM Calcium Pantothenate, 0.29 μM p-aminobenzoic acid, soil water).

[4] = test system: Botryococcus braunii UTEX 2441; test: as above; details: for DCW g/L / DCW mg/ml.: 4 weeks
Protocol: as §1

[5] = test system: Botryococcus braunii UTEX 572; test: Different fixed carbon sources on heterotrophic growth, visual score; parameters: key to heterotrophic growth score, 0.1% / heterotrophic growth score, 0.5% / heterotrophic growth score, 1%: Growth was scored with +'s by visual examination of the cultures; ++: Growth was scored with +'s by visual examination of the cultures; +++: Growth was scored with +'s by visual examination of the cultures; ++++: Growth was scored with +'s by visual examination of the cultures; +++++: Growth was scored with +'s by visual examination of the cultures
Protocol: (§2) All carbon sources were tested at three different concentrations; 0.1%, 0.5% and 1%. Cultures were grown in 24 well plates for 4 weeks in the dark in 1 ml BG11 plus fixed carbon. Control cultures were grown in BG-11 media under phototrophic conditions without a fixed carbon source. Growth was scored with +'s by visual examination of the cultures (see Table 7). UTEX 572 grew best in glucose, however there was also growth on mannose, galactose and fructose. UTEX 2441 preferred mannose in the dark but there was some growth in galactose, fructose and glycerol.

[6] = test system: Botryococcus braunii UTEX 2441; test: as above; parameters: key to heterotrophic growth score, 0.1% / heterotrophic growth score, 0.5% / heterotrophic growth score, 1%: Growth was scored with +'s by visual examination of the cultures; ++: Growth was scored with +'s by visual examination of the cultures; +++: Growth was scored with +'s by visual examination of the cultures; ++++: Growth was scored with +'s by visual examination of the cultures; +++++: Growth was scored with +'s by visual examination of the cultures; details: 4 weeks
Protocol: as §2

[7] = test system: Botryococcus braunii N-836; test: as above; parameters: key to heterotrophic growth score, 0.1% / heterotrophic growth score, 0.5% / heterotrophic growth score, 1%: Growth was scored with +'s by visual examination of the cultures; ++: Growth was scored with +'s by visual examination of the cultures; +++: Growth was scored with +'s by visual examination of the cultures; ++++: Growth was scored with +'s by visual examination of the cultures; +++++: Growth was scored with +'s by visual examination of the cultures
Protocol: as §2

[8] = test system: Botryococcus braunii UTEX 572; test: Complex nitrogen sources on heterotrophic growth with glucose; details: UTEX 572, 1% glucose in BG11, dark, 4 weeks
Protocol: (§3) The following experiment was done with UTEX 572, UTEX 2441, and N-836 in 20 ml of BG11 plus:
(§4) 1% glucose+2 g/L hydrolyzed casein

[9] = test system: Botryococcus braunii UTEX 2441; test: as above; details: UTEX 2441, 1% glucose in BG11, dark, 4 weeks
Protocol: as §3, §4

[10] = test system: Botryococcus braunii N-836; test: as above; details: N-836, 1% glucose in BG11, dark, 4 weeks
Protocol: as §3, §4

OC[C@H]1O[C@H](O[C@H]2[C@H](O)[C@@H](O)C(O)O[C@@H]2CO)[C@H](O)[C@@H](O)[C@@H]1O (mixture of isomers) [maltose]
growth by visual observation as compared to glucose only control [1]: better growth

O=C[C@H](O)[C@@H](O)[C@H](O)[C@H](O)CO [glucose]
DCW ([2]; final volume 350 mL): about 9 grams per liter
DCW ([2]; final volume 500 mL): about 3 grams per liter
DCW g/L ([3]; UTEX 572, 0.1% glucose, dark): 0.2 g/L
DCW mg/ml. ([3]; UTEX 572, 0.1% glucose, dark): 0.2 mg/mL
DCW g/L ([3]; UTEX 572, 0.2% glucose, dark): 0.2 g/L
DCW mg/ml. ([3]; UTEX 572, 0.2% glucose, dark): 0.2 mg/mL
DCW g/L ([3]; UTEX 572, 0.5% glucose, dark): 0.4 g/L
DCW mg/ml. ([3]; UTEX 572, 0.5% glucose, dark): 0.4 mg/mL
growth in the dark at 1% glucose compared with 0.1 and 0.5% ([3]; UTEX 572, 1% glucose, dark): best growth
growth with glucose in the dark ([3]; UTEX 572, BG11 plus glucose, dark): clearly grew
growth with glucose in the light ([3]; UTEX 572, BG11 plus glucose, light): no growth
DCW g/L ([4]; UTEX 2441, 0.1% glucose, dark): 0.3 g/L
DCW mg/ml. ([4]; UTEX 2441, 0.1% glucose, dark): 0.3 mg/mL
DCW g/L ([4]; UTEX 2441, 0.2% glucose, dark): 0.3 g/L
DCW mg/ml. ([4]; UTEX 2441, 0.2% glucose, dark): 0.3 mg/mL
DCW g/L ([4]; UTEX 2441, 0.5% glucose, dark): 0.1 g/L
DCW mg/ml. ([4]; UTEX 2441, 0.5% glucose, dark): 0.1 mg/mL
growth in the dark at 1% glucose compared with 0.1 and 0.5% ([4]; UTEX 2441, 1% glucose, dark): best growth
DCW g/L ([4]; UTEX 2441, 1.0% glucose, dark): 0.7 g/L
DCW mg/ml. ([4]; UTEX 2441, 1.0% glucose, dark): 0.7 mg/mL
growth with glucose in the dark ([4]; UTEX 2441, BG11 plus glucose, dark): clearly grew
growth with glucose in the light ([4]; UTEX 2441, BG11 plus glucose, light): no growth
heterotrophic growth score, 0.1% ([5]; UTEX 572, 0.1% carbon source in 1 ml BG11, dark, 4 weeks): +++
heterotrophic growth score, 0.5% ([5]; UTEX 572, 0.5% carbon source in 1 ml BG11, dark, 4 weeks): ++++
heterotrophic growth score, 1% ([5]; UTEX 572, 1% carbon source in 1 ml BG11, dark, 4 weeks): +++++
heterotrophic growth on carbon source, in words ([5]; UTEX 572, dark): grew best
heterotrophic growth score, 0.1% ([6]; UTEX 2441, 0.1% carbon source in 1 ml BG11, dark): ++
heterotrophic growth score, 0.5% ([6]; UTEX 2441, 0.5% carbon source in 1 ml BG11, dark): ++
heterotrophic growth score, 1% ([6]; UTEX 2441, 1% carbon source in 1 ml BG11, dark): ++++
heterotrophic growth score, 0.1% ([7]; N-836, 0.1% carbon source in 1 ml BG11, dark, 4 weeks): ++
heterotrophic growth score, 0.5% ([7]; N-836, 0.5% carbon source in 1 ml BG11, dark, 4 weeks): ++
heterotrophic growth score, 1% ([7]; N-836, 1% carbon source in 1 ml BG11, dark, 4 weeks): +++
heterotrophic growth on carbon source, in words ([7]; N-836, dark): heterotrophic growth
DCW [8]: 0.20 g/L and 0.33 g/L
DCW mg/3 m1. [8]: 0.6 mg/3 m1 and 1.0 mg/3 m1
DCW [9]: 0.067 g/L
DCW mg/3 m1. [9]: 0.2 mg/3 m1
DCW [10]: 0.267 g/L
DCW mg/3 m1. [10]: 0.8 mg/3 m1
